In PubChem BioAssay AID328 (DTP/NCI, 2004):
Where “and” joins values, the source holds several entries; their conditions need not be identical. Equal values may be shown once. Toxic doses and inconclusive results are not listed.

Test system: BDF1 mice, P388 leukemia ip, median survival T/C
Assay: NCI In Vivo Anticancer Drug Screen. Data for tumor model P388 Leukemia (intraperitoneal) in B6D2F1 (BDF1) mice
Conditions: endpoint: median survival time, higher = longer survival
In short: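 Survival ratio, drug arm over vehicle arm, in mice with a transplanted tumour.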

Structure (SMILES): COc1cc2cc3c4cc(OC)c(OC)cc4cc[n+]3c(C)c2cc1OC (tested in a mixture with another compound)
- T/C (dose: 8.0 mg/kg/injection, schedule: Q01DX008 (ip), vehicle: other): 156 % of control
- T/C (dose: 8.0 mg/kg/injection, schedule: Q01DX009 (ip), vehicle: clinical formulation): 155 % of control
- T/C (dose: 8.0 mg/kg/injection, schedule: Q03HX008 (ip), vehicle: other): 111 % of control
- T/C (dose: 9.3 mg/kg/injection, schedule: Q01DX009 (ip), vehicle: saline): 150 % of control
- T/C (dose: 12.5 mg/kg/injection, schedule: Q04DX003 (ip), vehicle: other): 121 % of control
- T/C (dose: 16.0 mg/kg/injection, schedule: Q01DX008 (ip), vehicle: other): 154 % of control
- T/C (dose: 16.0 mg/kg/injection, schedule: Q01DX008 (ip), vehicle: water): 163 % of control
- T/C (dose: 16.0 mg/kg/injection, schedule: Q01DX009 (ip), vehicle: Klucel (hydroxypropylcellulose) (HPC)): 157 % of control
- T/C (dose: 16.0 mg/kg/injection, schedule: Q01DX009 (ip), vehicle: clinical formulation): 161 % of control
- T/C (dose: 16.0 mg/kg/injection, schedule: Q01DX009 (oral), vehicle: other): 94 % of control
- T/C (dose: 16.0 mg/kg/injection, schedule: Q01DX009 (sc), vehicle: other): 101 % of control
- T/C (dose: 16.0 mg/kg/injection, schedule: Q03HX016 (ip), vehicle: other): 153 % of control
- T/C (dose: 16.0 mg/kg/injection, schedule: Q03HX024 (ip), vehicle: other): 174 % of control
- T/C (dose: 32.0 mg/kg/injection, schedule: Q01DX008 (ip), vehicle: Klucel (hydroxypropylcellulose) (HPC)): 182 % of control
- T/C (dose: 32.0 mg/kg/injection, schedule: Q01DX008 (ip), vehicle: other): 167 % of control
- T/C (dose: 32.0 mg/kg/injection, schedule: Q01DX008 (ip), vehicle: water): 163 % of control
- T/C (dose: 32.0 mg/kg/injection, schedule: Q01DX009 (ip), vehicle: Klucel (hydroxypropylcellulose) (HPC)): 186 % of control
- T/C (dose: 32.0 mg/kg/injection, schedule: Q01DX009 (ip), vehicle: clinical formulation): 211 % of control
- T/C (dose: 32.0 mg/kg/injection, schedule: Q01DX009 (oral), vehicle: other): 103 % of control
- T/C (dose: 32.0 mg/kg/injection, schedule: Q01DX009 (sc), vehicle: other): 115 % of control
- T/C (dose: 32.0 mg/kg/injection, schedule: Q03HX016 (ip), vehicle: other): 182 % of control
- T/C (dose: 32.0 mg/kg/injection, schedule: Q03HX024 (ip), vehicle: other): 190 % of control
- T/C (dose: 37.5 mg/kg/injection, schedule: Q01DX009 (ip), vehicle: saline): 175 % of control
- T/C (dose: 37.5 mg/kg/injection, schedule: Q04DX003 (ip), vehicle: saline): 162 % of control
- T/C (dose: 46.7 mg/kg/injection, schedule: Q04DX003 (ip), vehicle: alkali diluted with saline): 165 % of control
- T/C (dose: 50.0 mg/kg/injection, schedule: Q04DX002 (ip), vehicle: saline): 154 % of control
- T/C (dose: 50.0 mg/kg/injection, schedule: Q04DX003 (ip), vehicle: saline): 157 % of control
- T/C (dose: 50.0 mg/kg/injection, schedule: Q04DX003 (ip), vehicle: water): 158 % of control
- T/C (dose: 64.0 mg/kg/injection, schedule: Q01DX001 (ip), vehicle: other): 120 % of control
- T/C (dose: 64.0 mg/kg/injection, schedule: Q01DX001 (oral), vehicle: other): 100 % of control
- T/C (dose: 64.0 mg/kg/injection, schedule: Q01DX001 (sc), vehicle: other): 103 % of control
- T/C (dose: 64.0 mg/kg/injection, schedule: Q01DX008 (ip), vehicle: Klucel (hydroxypropylcellulose) (HPC)): 208 % of control
- T/C (dose: 64.0 mg/kg/injection, schedule: Q01DX008 (ip), vehicle: other): 206 % of control
- T/C (dose: 64.0 mg/kg/injection, schedule: Q01DX008 (ip), vehicle: water): 185 % of control
- T/C (dose: 64.0 mg/kg/injection, schedule: Q01DX009 (ip), vehicle: Klucel (hydroxypropylcellulose) (HPC)): 182 % of control and 203 % of control
- T/C (dose: 64.0 mg/kg/injection, schedule: Q01DX009 (ip), vehicle: clinical formulation): 194 % of control
- T/C (dose: 64.0 mg/kg/injection, schedule: Q01DX009 (oral), vehicle: other): 107 % of control
- T/C (dose: 64.0 mg/kg/injection, schedule: Q04DX003 (ip), vehicle: other): 161 % of control and 163 % of control
- T/C (dose: 64.0 mg/kg/injection, schedule: Q04DX003 (ip), vehicle: water): 159 % of control
- T/C (dose: 75.0 mg/kg/injection, schedule: Q01DX001 (ip), vehicle: saline): 154 % of control
- T/C (dose: 75.0 mg/kg/injection, schedule: Q01DX009 (ip), vehicle: saline): 183 % of control
- T/C (dose: 75.0 mg/kg/injection, schedule: Q04DX003 (ip), vehicle: saline): 158 % of control
- T/C (dose: 77.8 mg/kg/injection, schedule: Q04DX003 (ip), vehicle: alkali diluted with saline): 165 % of control
- T/C (dose: 86.4 mg/kg/injection, schedule: Q04DX003 (ip), vehicle: other): 193 % of control
- T/C (dose: 100.0 mg/kg/injection, schedule: Q04DX002 (ip), vehicle: saline): 154 % of control and 169 % of control
- T/C (dose: 100.0 mg/kg/injection, schedule: Q04DX003 (ip), vehicle: other): 155 % of control
- T/C (dose: 100.0 mg/kg/injection, schedule: Q04DX003 (ip), vehicle: water): 200 % of control
- T/C (dose: 128.0 mg/kg/injection, schedule: Q01DX001 (oral), vehicle: other): 98 % of control
- T/C (dose: 128.0 mg/kg/injection, schedule: Q01DX001 (sc), vehicle: other): 100 % of control
- T/C (dose: 128.0 mg/kg/injection, schedule: Q01DX008 (ip), vehicle: other): 156 % of control
- T/C (dose: 128.0 mg/kg/injection, schedule: Q01DX009 (ip), vehicle: Klucel (hydroxypropylcellulose) (HPC)): 186 % of control
- T/C (dose: 128.0 mg/kg/injection, schedule: Q01DX009 (oral), vehicle: other): 103 % of control
- T/C (dose: 128.0 mg/kg/injection, schedule: Q01DX009 (sc), vehicle: other): 159 % of control
- T/C (dose: 128.0 mg/kg/injection, schedule: Q04DX003 (ip), vehicle: Klucel (hydroxypropylcellulose) (HPC)): 156 % of control
- T/C (dose: 128.0 mg/kg/injection, schedule: Q04DX003 (ip), vehicle: other): 167 % of control and 175 % of control
- T/C (dose: 128.0 mg/kg/injection, schedule: Q08DX002 (ip), vehicle: other): 155 % of control
- T/C (dose: 130.0 mg/kg/injection, schedule: Q04DX003 (ip), vehicle: alkali diluted with saline): 180 % of control
- T/C (dose: 144.0 mg/kg/injection, schedule: Q04DX003 (ip), vehicle: other): 207 % of control
- T/C (dose: 150.0 mg/kg/injection, schedule: Q01DX001 (ip), vehicle: saline): 150 % of control
- T/C (dose: 150.0 mg/kg/injection, schedule: Q04DX003 (ip), vehicle: saline): 175 % of control
- T/C (dose: 200.0 mg/kg/injection, schedule: Q04DX002 (ip), vehicle: saline): 163 % of control and 176 % of control
- T/C (dose: 200.0 mg/kg/injection, schedule: Q04DX003 (ip), vehicle: other): 189 % of control
- T/C (dose: 216.0 mg/kg/injection, schedule: Q04DX003 (ip), vehicle: alkali diluted with saline): 205 % of control
- T/C (dose: 256.0 mg/kg/injection, schedule: Q01DX001 (oral), vehicle: other): 103 % of control
- T/C (dose: 256.0 mg/kg/injection, schedule: Q01DX001 (sc), vehicle: other): 108 % of control
- T/C (dose: 256.0 mg/kg/injection, schedule: Q01DX009 (oral), vehicle: other): 112 % of control
- T/C (dose: 256.0 mg/kg/injection, schedule: Q04DX003 (ip), vehicle: Klucel (hydroxypropylcellulose) (HPC)): 156 % of control
- T/C (dose: 256.0 mg/kg/injection, schedule: Q04DX003 (ip), vehicle: other): 206 % of control and 208 % of control
- T/C (dose: 256.0 mg/kg/injection, schedule: Q08DX002 (ip), vehicle: other): 174 % of control
- T/C (dose: 300.0 mg/kg/injection, schedule: Q01DX001 (ip), vehicle: saline): 166 % of control
- T/C (dose: 300.0 mg/kg/injection, schedule: Q04DX003 (ip), vehicle: saline): 220 % of control
- T/C (dose: 400.0 mg/kg/injection, schedule: Q04DX002 (ip), vehicle: saline): 163 % of control
- T/C (dose: 512.0 mg/kg/injection, schedule: Q01DX001 (oral), vehicle: other): 99 % of control
- T/C (dose: 512.0 mg/kg/injection, schedule: Q01DX001 (sc), vehicle: other): 107 % of control
- T/C (dose: 512.0 mg/kg/injection, schedule: Q01DX009 (oral), vehicle: other): 112 % of control
